Data: ChEMBL document CHEMBL1149994, “Total synthesis of novel conduritol related compounds capable of modulating insulin release” (1994)

Tests used:
Rattus norvegicus [1] = species: Rattus norvegicus; assay: Tested for change in release of insulin from pancreatic islets of Sprague-Dawley rats at a concentration of 16.7 mM glucose; assay type: functional
Rattus norvegicus [2] = species: Rattus norvegicus; assay: Tested for change in release of insulin from pancreatic islets of Sprague-Dawley rats at a concentration of 2.8 mM glucose; assay type: functional

| SMILES | Change (Rattus norvegicus [1]) | Change (Rattus norvegicus [2]) |
| --- | --- | --- |
| O[C@H]1[C@H](O)[C@@H](O)C=C[C@H]1O | -3% | 9% |
| O[C@H]1[C@H](O)[C@H](O)C=C[C@H]1O | 15% | 12% |
| O[C@@H]1[C@H](O)[C@@H](O)C=C[C@H]1O | -30% | 45% |
| CC(C)[C@@]12CC[C@@](C)(C3C1[C@H](O)[C@@H](O)[C@@H](O)[C@@H]3O)[C@@H](O)[C@H]2O (stereo partly specified) | -30% | -30% |
| O[C@H]1[C@H](O)[C@@H](O)C=C[C@@H]1O | 50% | 41% |
| O[C@@H]1[C@H](O)[C@@H](O)C2C(C3CCC2[C@H](O)[C@@H]3O)[C@H]1O (stereo partly specified) | 44% | -18% |
| O[C@@H]1[C@H](O)[C@H](O)C=C[C@@H]1O | 0% | 0% |
| O[C@@H]1[C@H](O)[C@H](O)C=C[C@H]1O | -20% | 27% |
| C[C@@]1(O)CC2C(C[C@@]1(C)O)[C@H](O)[C@@H](O)[C@@H](O)[C@@H]2O (stereo partly specified) | 0% | -60% |
| O[C@@H]1[C@H](O)[C@@H](O)C2C([C@H](O)CC[C@@H]2O)[C@H]1O (stereo partly specified) | -35% | -45% |
| CC(=O)O[C@@H]1[C@H](OC(C)=O)[C@@H](OC(C)=O)C2C(C3CCC2[C@H](O)[C@@H]3O)[C@H]1OC(C)=O (stereo partly specified) | -23% | -60% |
| CC(C)[C@@]12CC[C@@]3(C)C4C1[C@H](O[C@H]2[C@@H]3O)C(O)[C@@H](O)[C@@H]4O (single isomer, unassigned) | -45% | -60% |
| OC1[C@H]2O[C@@H]3C4CCC(C(C42)[C@@H](O)[C@@H]1O)[C@H]3O (single isomer, unassigned) | -70% | 0% |
